By EC50 is commonly meant the midpoint of the concentration-response curve. One may read the AC50 as the concentration giving half of the maximal activity seen. A word on the IC50: it is the concentration that gives 50% inhibition.

Calls of active or inactive are those of the source. For most assays here, no stated cut-off is given here; in the data, actives have a measured EC50 and inactives only a lower limit.

Test [1] concerns the target Luciferin 4-monooxygenase (Photinus pyralis, UniProt P08659). Nature of the test: firefly luciferase enzyme inhibitors, dose response, biochemical, luminescence (AID 1891).
Test [2] is described as follows: Luminescence Cell-Based Dose Confirmation HTS to Identify Inhibitors of Platelet Dense Granule Release. [Related pubchem assays: 1663 (Primary HTS), 1678 (Summary of Project)]. The format is functional.
Test [3] relates to Streptococcus sp. 'group A'. Nature of the test: growth inhibition of control SK(-) GAS strain, dose response, counter-screen for streptokinase expression inhibitor project, luminescence, kanamycin, BacTiterGlo, confirmation (AID 1900). It counts as functional, organism-based.
The target of the next test is T1, Streptokinase A (Streptococcus pyogenes serotype M1, UniProt P10520).
T1 sequence (P10520 whole entry): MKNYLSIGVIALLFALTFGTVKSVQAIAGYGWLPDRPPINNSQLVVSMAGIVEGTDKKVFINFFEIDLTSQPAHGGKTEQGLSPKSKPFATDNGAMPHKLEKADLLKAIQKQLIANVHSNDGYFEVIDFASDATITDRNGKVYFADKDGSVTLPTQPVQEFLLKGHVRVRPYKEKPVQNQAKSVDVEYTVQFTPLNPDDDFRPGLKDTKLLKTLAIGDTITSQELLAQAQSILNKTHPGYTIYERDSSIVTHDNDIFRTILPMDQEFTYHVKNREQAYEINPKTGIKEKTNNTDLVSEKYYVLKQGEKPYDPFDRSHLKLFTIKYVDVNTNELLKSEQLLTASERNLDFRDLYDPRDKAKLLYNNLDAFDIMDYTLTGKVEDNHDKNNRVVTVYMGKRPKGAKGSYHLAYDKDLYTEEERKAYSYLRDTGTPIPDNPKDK
The test can be described thus: S. pyogenes streptokinase expression inhibitors, potency, dose response, plasminogen activation absorbance, OD405 (AID 1914).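 Further: secreted streptokinase activity via plasminogen activation per viability signal from cell pellet.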 It counts as functional, Streptococcus pyogenes M1 GAS.

The next test deals with Streptococcus. Nature of the test: Group A Streptococcus viability loss, dose response, counter-screen for streptokinase expression inhibitor project, luminescence, BacTiterGlo (AID 1915).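 Further: potency for reduction of bacterial viability or growth.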 It counts as functional, organism-based.
Test [4] is described as follows: inhibitors of SNCA 5'UTR-driven reporter translation, confirmation, H4 neuroglioma cells, luminescence (AID 1988). The format is functional, cell-based.
A short description of test [5]: Luminescence Cell-Based Dose Response HTS to Identify Inhibitors of 5'UTR Stem-Loop Driven Prion Protein mRNA Translation in H4 Neuroglioblastoma Cells. [Related pubchem assays: 1827 (Project Summary), 1813 (Primary HTS)]. The format is functional.
Test [6] is described as follows: inhibitors of firefly luciferase expression or activity, dose response, H4 neuroglioma cells, luminescence (AID 1990). The format is functional, cell-based.
A further test concerns the target Paired box protein Pax-8 (Homo sapiens, UniProt Q06710). The test can be described thus: inhibitors of PAX8-driven TPO luciferase reporter, dose response, RMG-I cells, cherry-pick (AID 687027).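 Further: luciferase reporter driven by Pax8 target thyroperoxidase promoter measured by SteadyGlo luminescence.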 It counts as functional, cell-based.
Test [7] addresses Glyceraldehyde-3-phosphate dehydrogenase (Homo sapiens, UniProt P04406).
The nature of test [8]: Luminescence Cell-Based Dose Response HTS to Identify Activators of Luciferase Translation or Activity in H4 […] Cells. [Related pubchem assays: 1829 (Project Summary), 1814 (Primary HTS)]. It counts as functional.
A short description of test [9]: Luminescence Cell-Based Dose Confirmation HTS to Identify Activators of 5'UTR Stem-Loop Driven Alpha-Synuclein mRNA Translation in H4 Neuroglioblastoma Cells. [Related pubchem assays: 1829 (Project Summary), 1814 (Primary HTS)]. The format is functional.
A further test deals with H4. The test can be described thus: Luminescence Cell-Based Dose Response HTS to Identify Activators of 5'UTR Stem-Loop Driven Prion Protein mRNA Translation in H4 Neuroglioblastoma Cells. [Related pubchem assays: 1829 (Project Summary), 1814 (Primary HTS)]. The format is functional. The following applies: Homo sapiens.
Another test deals with Fatty acid synthase (Homo sapiens, UniProt P49327). Nature of the test: FAS thioesterase domain inhibitors, dose response, biochemical, kinetic fluorescence intensity (AID 624326).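 Further: rate of fluorescence rise from hydrolysis of a fluorogenic O-methyl fluorescein ester substrate.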 It counts as functional.
Sequence of Fatty acid synthase (P49327 whole entry, the tested form may be a part): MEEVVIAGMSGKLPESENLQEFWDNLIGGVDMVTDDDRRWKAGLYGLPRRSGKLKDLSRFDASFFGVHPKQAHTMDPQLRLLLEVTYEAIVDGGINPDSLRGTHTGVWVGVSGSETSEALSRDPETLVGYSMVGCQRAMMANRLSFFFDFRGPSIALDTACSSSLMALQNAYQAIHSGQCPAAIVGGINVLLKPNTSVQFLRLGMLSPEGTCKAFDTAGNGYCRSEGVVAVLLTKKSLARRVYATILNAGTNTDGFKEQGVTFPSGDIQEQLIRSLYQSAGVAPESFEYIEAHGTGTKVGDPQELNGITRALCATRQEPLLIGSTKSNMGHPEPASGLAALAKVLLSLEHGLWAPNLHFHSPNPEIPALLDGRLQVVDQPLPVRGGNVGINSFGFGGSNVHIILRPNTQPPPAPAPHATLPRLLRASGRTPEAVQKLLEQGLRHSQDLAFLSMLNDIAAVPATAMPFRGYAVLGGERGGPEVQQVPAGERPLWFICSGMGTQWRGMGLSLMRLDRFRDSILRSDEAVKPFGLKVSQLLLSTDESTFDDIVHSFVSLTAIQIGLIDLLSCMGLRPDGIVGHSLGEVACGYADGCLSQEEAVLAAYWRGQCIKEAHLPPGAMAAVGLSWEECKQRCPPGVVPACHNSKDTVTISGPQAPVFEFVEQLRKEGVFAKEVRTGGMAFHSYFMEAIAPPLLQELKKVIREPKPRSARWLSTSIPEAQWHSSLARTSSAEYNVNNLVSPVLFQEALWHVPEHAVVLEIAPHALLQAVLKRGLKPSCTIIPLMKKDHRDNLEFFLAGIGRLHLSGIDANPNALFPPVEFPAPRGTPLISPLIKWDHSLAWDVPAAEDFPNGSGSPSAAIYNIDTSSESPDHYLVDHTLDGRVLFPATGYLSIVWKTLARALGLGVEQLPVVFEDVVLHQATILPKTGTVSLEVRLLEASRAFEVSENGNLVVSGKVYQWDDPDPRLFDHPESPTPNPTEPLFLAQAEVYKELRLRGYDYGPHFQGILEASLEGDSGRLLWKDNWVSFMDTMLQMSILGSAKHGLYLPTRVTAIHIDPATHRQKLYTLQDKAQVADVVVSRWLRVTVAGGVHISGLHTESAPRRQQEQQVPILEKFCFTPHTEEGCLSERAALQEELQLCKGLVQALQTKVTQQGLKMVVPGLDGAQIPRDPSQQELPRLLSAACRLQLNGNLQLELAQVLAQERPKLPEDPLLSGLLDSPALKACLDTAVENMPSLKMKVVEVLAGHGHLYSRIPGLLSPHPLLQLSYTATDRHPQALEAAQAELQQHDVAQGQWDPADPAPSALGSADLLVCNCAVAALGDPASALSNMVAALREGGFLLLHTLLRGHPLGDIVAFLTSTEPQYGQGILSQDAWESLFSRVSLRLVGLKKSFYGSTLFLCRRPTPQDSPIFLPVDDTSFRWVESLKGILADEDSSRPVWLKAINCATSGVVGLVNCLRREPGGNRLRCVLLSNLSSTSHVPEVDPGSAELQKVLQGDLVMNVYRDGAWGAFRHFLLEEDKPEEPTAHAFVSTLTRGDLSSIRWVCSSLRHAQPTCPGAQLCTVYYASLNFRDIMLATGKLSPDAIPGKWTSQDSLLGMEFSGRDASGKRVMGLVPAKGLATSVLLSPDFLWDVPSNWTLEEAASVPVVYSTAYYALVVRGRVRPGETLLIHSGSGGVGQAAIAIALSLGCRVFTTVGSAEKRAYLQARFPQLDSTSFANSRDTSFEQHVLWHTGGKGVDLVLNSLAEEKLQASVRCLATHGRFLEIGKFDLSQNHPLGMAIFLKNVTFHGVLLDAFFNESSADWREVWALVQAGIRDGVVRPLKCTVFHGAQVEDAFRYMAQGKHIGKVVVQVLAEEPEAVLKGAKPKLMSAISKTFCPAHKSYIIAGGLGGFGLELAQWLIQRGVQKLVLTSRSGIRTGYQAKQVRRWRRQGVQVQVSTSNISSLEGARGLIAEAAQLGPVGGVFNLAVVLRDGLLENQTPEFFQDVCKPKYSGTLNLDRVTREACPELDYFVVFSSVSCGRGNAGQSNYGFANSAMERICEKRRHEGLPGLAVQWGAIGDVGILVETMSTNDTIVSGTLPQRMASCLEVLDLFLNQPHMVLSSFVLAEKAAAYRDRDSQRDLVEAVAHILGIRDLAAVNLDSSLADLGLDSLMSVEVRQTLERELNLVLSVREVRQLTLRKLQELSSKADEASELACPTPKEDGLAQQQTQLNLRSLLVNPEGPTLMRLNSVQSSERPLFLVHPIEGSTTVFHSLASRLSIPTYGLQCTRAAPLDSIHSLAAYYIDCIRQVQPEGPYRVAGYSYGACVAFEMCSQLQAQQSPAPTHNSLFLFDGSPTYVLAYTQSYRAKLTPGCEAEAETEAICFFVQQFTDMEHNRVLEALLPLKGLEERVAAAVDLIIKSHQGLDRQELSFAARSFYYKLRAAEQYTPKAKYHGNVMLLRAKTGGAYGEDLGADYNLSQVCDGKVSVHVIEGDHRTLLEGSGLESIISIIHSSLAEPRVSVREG

Sequence of Luciferin 4-monooxygenase (P08659 whole entry): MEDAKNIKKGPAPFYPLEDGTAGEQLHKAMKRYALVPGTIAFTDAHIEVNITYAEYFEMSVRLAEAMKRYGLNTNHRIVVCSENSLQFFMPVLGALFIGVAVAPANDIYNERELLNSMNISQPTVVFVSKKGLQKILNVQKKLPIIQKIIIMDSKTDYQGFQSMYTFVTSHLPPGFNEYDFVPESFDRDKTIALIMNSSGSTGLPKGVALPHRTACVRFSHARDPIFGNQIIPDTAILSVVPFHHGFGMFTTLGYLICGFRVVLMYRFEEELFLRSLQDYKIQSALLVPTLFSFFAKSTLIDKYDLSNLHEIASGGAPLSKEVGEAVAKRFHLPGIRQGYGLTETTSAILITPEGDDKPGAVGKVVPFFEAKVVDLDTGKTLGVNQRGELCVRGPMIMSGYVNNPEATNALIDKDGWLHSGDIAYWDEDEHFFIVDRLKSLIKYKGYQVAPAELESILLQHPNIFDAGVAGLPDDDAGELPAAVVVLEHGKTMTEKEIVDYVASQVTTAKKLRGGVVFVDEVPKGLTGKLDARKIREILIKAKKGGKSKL
Sequence of Glyceraldehyde-3-phosphate dehydrogenase (P04406 whole entry): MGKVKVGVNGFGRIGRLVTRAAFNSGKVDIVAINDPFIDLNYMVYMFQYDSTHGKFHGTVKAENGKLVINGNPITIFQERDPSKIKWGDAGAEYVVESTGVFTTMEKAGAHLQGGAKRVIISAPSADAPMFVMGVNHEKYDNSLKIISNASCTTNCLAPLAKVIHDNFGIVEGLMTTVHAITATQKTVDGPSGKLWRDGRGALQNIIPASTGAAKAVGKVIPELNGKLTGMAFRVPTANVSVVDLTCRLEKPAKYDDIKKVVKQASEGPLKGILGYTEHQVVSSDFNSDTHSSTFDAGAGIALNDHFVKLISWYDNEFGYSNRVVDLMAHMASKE
Sequence of Paired box protein Pax-8 (Q06710 whole entry): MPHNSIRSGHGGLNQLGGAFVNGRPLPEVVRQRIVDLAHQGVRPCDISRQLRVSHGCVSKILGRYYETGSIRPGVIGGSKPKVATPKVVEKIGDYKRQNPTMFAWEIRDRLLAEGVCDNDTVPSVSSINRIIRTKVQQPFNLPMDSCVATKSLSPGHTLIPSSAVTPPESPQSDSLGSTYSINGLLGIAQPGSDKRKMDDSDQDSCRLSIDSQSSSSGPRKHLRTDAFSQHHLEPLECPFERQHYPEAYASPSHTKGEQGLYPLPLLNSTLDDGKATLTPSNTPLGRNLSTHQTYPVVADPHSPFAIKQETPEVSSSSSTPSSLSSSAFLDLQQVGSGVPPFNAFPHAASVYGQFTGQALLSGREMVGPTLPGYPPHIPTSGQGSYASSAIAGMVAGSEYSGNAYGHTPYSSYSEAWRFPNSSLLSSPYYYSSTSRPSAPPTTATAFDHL

`NC(=O)c1nsc(C(=O)N(CC(=O)NC2CCCC2)c2cnc3ccccc3c2)c1N`: the EC50 in test [1] is > 112 µM (not active); in test [2] it was 17.1 µM (active).

`CCOc1ccc(-c2nc3n(c(=O)c2C#N)CCCS3)cc1`: the EC50 in [3] is 11.9 µM (active); at Streptokinase A, > 150 µM (not active); in test [1], > 112 µM (not active); in the test on Streptococcus it was 148 µM (active); in test [2], > 112 µM (not active).

`CC(NC(=O)COC(=O)c1ccc2c(c1)S(=O)(=O)N=C1CCCCCN12)C12CC3CC(CC(C3)C1)C2` (stereo unspecified): the EC50 in test [4] is 15.5 µM (active); in test [5], > 120 µM (not active); in test [6], > 120 µM (not active).

In the case of `COc1ccc(NC(=O)CNC(=O)c2ccc([N+](=O)[O-])cc2)cc1`, the EC50 in test [1] was > 112 µM (not active); in [2], 15.4 µM (active).

For `Cc1c(CCC(=O)N2CCC[C@H]2C(=O)O)c(=O)oc2c(C)c3oc4c(c3cc12)CCCC4`, the figures for the EC50 in test [4], in [5] and in [6] were 14 µM (active), 16.2 µM (active) and 15.9 µM (active), respectively.

For the compound `C[C@@H]1CCCCO[C@@H](CN(C)C(=O)C2CCCCC2)[C@H](C)CN([C@@H](C)CO)C(=O)c2cc(NS(=O)(=O)c3ccc(Cl)cc3)ccc2O1`, at Paired box protein Pax-8, the AC50 was 9.05 µM (active).

Consider `COc1cccc(-n2nc3c(S)nnc(C)c3c2C)c1`, for which the EC50 in test [4] is > 120 µM (not active); in test [5], > 120 µM (not active); in test [6], 16.2 µM (active).

Turning to `COc1cccc(/C=N/NC(=O)N/N=C/c2cccc(OC)c2O)c1O`, the EC50 was 9.36 µM (active) in test [4], > 120 µM (not active) in test [5] and 15.5 µM (active) in test [6].

For `Cc1onc(-c2ccccc2Cl)c1C(=O)NC(=S)Nc1ccc(C(C)(C)C)cc1`, the EC50 in test [4] is 107 µM (active); in [5], > 120 µM (not active); in [6], > 120 µM (not active).

With `Cc1ccc(NC(=O)c2cc(S(=O)(=O)N3CCOCC3)cn2C)cc1F`, the EC50 in test [1] and in test [2] was > 112 µM (not active) throughout.

Consider `COC(=O)c1ccc(C2C(C(=O)c3ccc4c(c3)CC(C)O4)=C(O)C(=O)N2Cc2ccncc2)cc1` (stereo unspecified), for which the EC50 in [1] and in [2] was > 112 µM (not active) each time.

`COc1ccc(Cl)cc1S(=O)(=O)Nc1cnc2ccccc2c1`: in test [7], the IC50 is > 10 µM (inconclusive).

As for `C[C@@H]1CN([C@@H](C)CO)C(=O)Cc2cc(NC(=O)Nc3ccc(C(F)(F)F)cc3)ccc2O[C@H]1CN(C)S(=O)(=O)c1ccc(F)cc1`, the AC50 on Paired box protein Pax-8 is 9.39 µM (active).

Take `Cc1ccc(NC(=O)CNc2cc(S(=O)(=O)N3CCOCC3)ccc2NCC2CCCO2)cc1F` (stereo unspecified): the EC50 in test [1] and in test [2] was > 112 µM (not active) in each case.

As for `O=C(NCCCO)c1cc(-c2cc(F)c(Cl)cc2Cl)n[nH]1`, in test [7], the IC50 was > 10 µM (inconclusive).

With `CCC(c1nnnn1Cc1ccccc1)N(Cc1ccco1)Cc1cc2cc(OC)ccc2nc1O` (stereo unspecified), the EC50 in test [1] and in [2] was > 112 µM (not active) each time.

On to `Cc1ccc2c(c1)C(O)(CC(=O)/C=C/C=C/c1ccccc1)C(=O)N2` (stereo unspecified), for which the results for the EC50 (in test [8]; in [9]; in the test with H4) were 11.8 µM (active), 17 µM (active) and > 120 µM (not active), respectively.

For `Cc1ccc(CNc2cc(-c3nn4c(C)nnc4s3)ccc2C)s1`, the EC50 was 22.5 µM (active) in test [4], 56.1 µM (active) in test [5] and 9.69 µM (active) in test [6].

`Cc1ccc(C)n1-c1ccc(S(N)(=O)=O)cc1`: in [7], the IC50 was > 100 µM (not active).

For `Cc1ccc(NC(=O)NC2=NN(c3ccccc3)C(=O)/C2=C2/CCCN2C)cc1`, the EC50 in test [8] was 18.1 µM (active); in [9], 32.5 µM (active); with H4, 14.4 µM (active).

As for `O=C(CCc1nnc(-c2ccc(-c3ccccc3)cc2)o1)NCCc1ccccn1`, the EC50 in test [5] is 21.4 µM (active).

With `OC(COc1ccc2ccccc2c1Cl)CN1CCOCC1` (stereo unspecified), the EC50 in test [8] was 6.79 µM (active); in [9], 4.79 µM (active); with H4, 9.81 µM (active).

Consider `CC(C)(C)c1nc2scc(-c3cccs3)c2c(=O)o1`, for which the IC50 at Fatty acid synthase is 3.42 µM (active).

(Values after ChEMBL document CHEMBL1201862, “PubChem BioAssay data set” (2004).)
